| melting point | Compound |
| --- | --- |
| 69 to 70 °C | CC(C)(O)C#Cc1nccs1 [Example 2, 2-Methyl-4-(1,3-thiazol-2-yl)-3-butyn-2-ol] |
| 124 to 125 °C | Clc1cncc(C#Cc2nccs2)c1 [Example 6, 3-Chloro-5-(1,3-thiazol-2-ylethynyl)pyridine] |
